Assay [1] in a line: cells. Particulars: Homo sapiens, HEK293.
Description: Inhibition of Nano Luc-fused CSNK2A (unknown origin) expressed in HEK293 cells using NanoGlo as substrate by NanoBRET In-cell target engagement assay
Assay [2] concerns the target T1, Mitogen-activated protein kinase 15 (Homo sapiens) (UniProt Q8TD08).
T1 sequence (whole entry): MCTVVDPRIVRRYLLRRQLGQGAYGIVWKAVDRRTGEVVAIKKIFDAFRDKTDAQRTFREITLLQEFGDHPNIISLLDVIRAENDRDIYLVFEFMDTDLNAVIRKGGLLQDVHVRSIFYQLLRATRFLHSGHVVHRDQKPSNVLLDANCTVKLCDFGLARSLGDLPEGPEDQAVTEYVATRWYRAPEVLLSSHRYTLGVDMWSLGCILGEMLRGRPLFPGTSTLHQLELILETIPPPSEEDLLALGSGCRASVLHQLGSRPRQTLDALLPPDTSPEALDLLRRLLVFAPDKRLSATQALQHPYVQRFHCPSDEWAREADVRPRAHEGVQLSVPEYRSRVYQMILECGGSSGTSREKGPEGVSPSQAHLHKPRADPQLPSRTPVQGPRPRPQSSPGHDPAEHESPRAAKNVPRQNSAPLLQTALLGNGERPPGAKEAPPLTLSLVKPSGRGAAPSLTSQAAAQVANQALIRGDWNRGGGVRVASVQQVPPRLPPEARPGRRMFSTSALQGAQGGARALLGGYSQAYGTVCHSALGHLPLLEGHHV
The assay can be described thus: Binding affinity to MAPK15 (unknown origin) assessed as melting temperature by thermal shift assay.

Assay [3] concerns the target Serine/threonine-protein kinase pim-1 (Homo sapiens) (UniProt P11309). The assay can be described thus: Binding affinity to PIM1 (unknown origin) assessed as melting temperature by thermal shift assay.
Assay [4] has as its target T2, Dual specificity tyrosine-phosphorylation-regulated kinase 2 (Homo sapiens) (UniProt Q92630).
T2 sequence (whole entry): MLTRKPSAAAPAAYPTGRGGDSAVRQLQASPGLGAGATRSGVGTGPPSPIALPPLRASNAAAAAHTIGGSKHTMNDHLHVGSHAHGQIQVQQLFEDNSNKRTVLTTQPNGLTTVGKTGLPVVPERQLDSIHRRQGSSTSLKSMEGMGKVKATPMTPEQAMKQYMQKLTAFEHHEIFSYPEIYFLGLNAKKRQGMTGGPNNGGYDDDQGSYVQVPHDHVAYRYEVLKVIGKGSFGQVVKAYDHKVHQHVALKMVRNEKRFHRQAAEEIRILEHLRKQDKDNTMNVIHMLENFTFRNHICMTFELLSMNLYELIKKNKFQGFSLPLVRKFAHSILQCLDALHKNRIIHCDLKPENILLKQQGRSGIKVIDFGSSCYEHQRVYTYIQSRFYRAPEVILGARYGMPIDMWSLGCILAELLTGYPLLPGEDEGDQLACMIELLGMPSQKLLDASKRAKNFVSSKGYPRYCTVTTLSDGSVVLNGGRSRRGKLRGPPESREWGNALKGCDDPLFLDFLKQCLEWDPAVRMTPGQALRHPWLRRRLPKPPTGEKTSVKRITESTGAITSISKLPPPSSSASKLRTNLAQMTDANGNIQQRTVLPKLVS
The assay can be described thus: Binding affinity to DYRK2 (unknown origin) assessed as melting temperature by thermal shift assay.

Assay [5] addresses BMP-2-inducible protein kinase (Homo sapiens) (UniProt Q9NSY1). The assay can be described thus: Binding affinity to BIKE (unknown origin) assessed as melting temperature by thermal shift assay.
Assay [6] deals with Death-associated protein kinase 3 (Homo sapiens) (UniProt O43293). The assay can be described thus: Binding affinity to DAPK3 (unknown origin) assessed as melting temperature by thermal shift assay.
For assay [7], the system named is Murine hepatitis virus. The assay can be described thus: microbe, parasite or virus in culture. Particulars: Murine coronavirus, DB.
Description: Antiviral activity against MHV expressing nLuc infected in human DB cells assessed as inhibition of viral replication
Assay [8] deals with HEK293. The assay can be described thus: Inhibition of Nano Luc-fused CSNK2A (unknown origin) expressed in HEK293 cells using NanoGlo as substrate at 10 uM by NanoBRET In-cell target engagement assay. Particulars: Homo sapiens. In kind it is cell-based. For orientation: BRET reads energy transfer from a luciferase to a nearby fluorophore.

pIC50: −log10 of the molar value. The source made the active and inactive calls. No cut-off for these calls is given here.

Sequence of BMP-2-inducible protein kinase (Homo sapiens) (Q9NSY1 whole entry, looked up): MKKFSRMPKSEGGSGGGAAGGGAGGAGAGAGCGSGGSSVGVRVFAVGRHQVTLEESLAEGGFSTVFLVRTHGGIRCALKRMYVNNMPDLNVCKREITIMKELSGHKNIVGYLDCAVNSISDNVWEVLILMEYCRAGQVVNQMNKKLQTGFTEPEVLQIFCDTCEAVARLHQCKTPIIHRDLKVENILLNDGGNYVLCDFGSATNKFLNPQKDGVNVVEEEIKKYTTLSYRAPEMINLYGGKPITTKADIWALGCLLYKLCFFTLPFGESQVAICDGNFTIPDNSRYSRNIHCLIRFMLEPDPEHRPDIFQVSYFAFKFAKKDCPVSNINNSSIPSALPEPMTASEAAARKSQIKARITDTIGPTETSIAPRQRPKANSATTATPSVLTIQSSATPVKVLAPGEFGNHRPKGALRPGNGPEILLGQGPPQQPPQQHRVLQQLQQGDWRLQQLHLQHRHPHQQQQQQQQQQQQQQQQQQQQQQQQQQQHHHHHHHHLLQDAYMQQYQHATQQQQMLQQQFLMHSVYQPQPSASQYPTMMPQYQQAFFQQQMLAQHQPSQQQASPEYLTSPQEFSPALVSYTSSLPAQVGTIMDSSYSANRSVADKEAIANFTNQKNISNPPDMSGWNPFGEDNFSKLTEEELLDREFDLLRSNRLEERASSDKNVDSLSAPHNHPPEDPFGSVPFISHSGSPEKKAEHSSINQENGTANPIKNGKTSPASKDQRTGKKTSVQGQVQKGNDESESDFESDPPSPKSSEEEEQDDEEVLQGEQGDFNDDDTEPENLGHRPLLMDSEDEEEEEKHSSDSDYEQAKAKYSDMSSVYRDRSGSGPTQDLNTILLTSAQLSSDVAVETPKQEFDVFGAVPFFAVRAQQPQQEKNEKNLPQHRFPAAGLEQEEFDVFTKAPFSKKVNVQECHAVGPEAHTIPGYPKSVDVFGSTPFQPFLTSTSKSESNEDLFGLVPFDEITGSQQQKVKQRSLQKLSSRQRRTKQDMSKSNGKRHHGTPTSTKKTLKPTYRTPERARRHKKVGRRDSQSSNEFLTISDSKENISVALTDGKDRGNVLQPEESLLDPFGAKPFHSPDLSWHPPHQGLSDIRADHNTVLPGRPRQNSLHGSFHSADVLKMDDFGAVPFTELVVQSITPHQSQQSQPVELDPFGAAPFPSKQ
Sequence of Serine/threonine-protein kinase pim-1 (Homo sapiens) (P11309 whole entry, looked up): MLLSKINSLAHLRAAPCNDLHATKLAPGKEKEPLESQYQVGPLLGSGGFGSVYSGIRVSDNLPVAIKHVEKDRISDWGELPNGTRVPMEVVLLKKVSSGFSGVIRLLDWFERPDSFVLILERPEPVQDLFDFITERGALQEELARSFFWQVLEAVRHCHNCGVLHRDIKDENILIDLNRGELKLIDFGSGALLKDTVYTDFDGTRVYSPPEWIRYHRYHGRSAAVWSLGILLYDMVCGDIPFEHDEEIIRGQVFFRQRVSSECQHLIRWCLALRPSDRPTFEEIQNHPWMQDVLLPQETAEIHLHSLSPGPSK
Sequence of Death-associated protein kinase 3 (Homo sapiens) (O43293 whole entry, looked up): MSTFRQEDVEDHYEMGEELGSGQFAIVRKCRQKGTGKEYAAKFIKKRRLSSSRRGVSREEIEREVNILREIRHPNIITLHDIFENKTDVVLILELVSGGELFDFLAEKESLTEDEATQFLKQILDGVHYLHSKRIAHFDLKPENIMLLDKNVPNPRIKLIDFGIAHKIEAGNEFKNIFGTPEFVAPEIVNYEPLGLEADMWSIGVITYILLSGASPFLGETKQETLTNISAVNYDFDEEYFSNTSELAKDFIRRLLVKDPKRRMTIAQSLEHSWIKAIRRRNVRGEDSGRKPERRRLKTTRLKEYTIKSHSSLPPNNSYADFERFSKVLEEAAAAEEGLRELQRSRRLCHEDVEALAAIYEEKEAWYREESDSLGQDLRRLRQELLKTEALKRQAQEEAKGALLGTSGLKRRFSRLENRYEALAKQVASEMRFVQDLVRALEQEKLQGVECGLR

Regarding `CC(C)Nc1ccc2cnn(-c3cncc(-c4ccc(C(=O)O)c(Cl)c4)n3)c2c1`, in assay [1], the pIC50 – broadly, −log10 of the IC50, conventionally taken in molar units – was 6.59.
On to `COc1ccc(OC(C)C)cc1Nc1cncc(-c2ccc(C(=O)O)cc2)n1`, for which the Tm in assay [2], in assay [3], in assay [4], in assay [5] and in assay [6] was above 9 °C in each case.
For `O=C(O)c1ccc(-c2cncc(-n3ncc4ccc(NCCN5CCOCC5)cc43)n2)cc1`, the pIC50 in assay [1] was 5.59.
Compound `CC(C)C(=O)OC[C@H]1O[C@@H](n2cc/c(=N\O)[nH]c2=O)[C@H](O)[C@@H]1O` [MOLNUPIRAVIR] gave a pIC50 in assay [7] of 5.85.
On to `CC(=O)Nc1ccc2cnn(-c3cncc(-c4ccc(C(=O)O)cc4)n3)c2c1`, for which the pIC50 in assay [1] was 5.40.
Still for that read-out and setting: the figure for `O=C(O)c1ccc(-c2cncc(-n3ncc4ccc(NC5CCCC5)cc43)n2)cc1` is 5.66.
As to `COc1cc(-c2cncc(-n3ncc4ccc(NC(C)C)cc43)n2)ccc1C(=O)O`, the inhibition result in assay [8] was “inactive”.
Still for that read-out and setting: the entry for `CC(C)Nc1ccc2cnn(-c3cncc(-c4ccc(S(N)(=O)=O)cc4)n3)c2c1` is “inactive”; for `CC(C)Nc1ccc2cnn(-c3cncc(-c4ccc(C(N)=O)cc4)n3)c2c1` it is “inactive”.
